The structures appear in SMILES notation. Like-named read-outs stand apart in the source and are kept apart here.

We go through 19 molecules from patent publication US20250179059A1 (The Regents of the University of California, priority 2021, published 2025).

Assay [1] addresses T1, human BRD4 bromodomain II (Homo sapiens, UniProt O60885).
T1 construct: human BRD4 bromodomain II [based on Genbank NM_058243, residues 349-460]; host or cells: E. coli
As to the kind of experiment: Bromodomain binding assay (AlphaScreen), BRD4 BDII. The procedure, abridged:
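AlphaScreen competition: His6-BRD4 BDI (aa 44-170) or BDII (aa 349-460) vs biotin-H4(1-21) K5/K8/K12/K16Ac peptide; Ni-chelate acceptor/streptavidin donor beads. HEPES pH 7.5, NaCl, CHAPS, BSA, 1% DMSO; RT. 10-pt 3-fold titration, % peptide binding fitted → IC50.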

For assay [2], the system named is human SKM-1 acute myeloid leukemia cells. Nature of the assay: SKM-1 antiproliferation cell-based assay (ATPlite). The conditions noted are these: Homo sapiens. The procedure, abridged:
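Log-phase cells in RPMI 1640/15% FBS were seeded at 34722 cells/mL and exposed for 4 days to nine-concentration DMSO serial dilutions in triplicate. Viability was read as ATP luminescence (ATPlite 1step), and IC50 values came from variable-slope non-linear regression.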

The mark [3] stands for this setting: AlphaScreen assay, Table C2, read-out: BRD4 BDII IC50.
The mark [4] stands for this setting: SKM-1, 96 h, SKM-1 antiproliferation assay, 4 days, Table C2.
The mark [5] stands for this setting: BRD4 BDII AlphaScreen assay, read-out: BRD4 BD2 IC50.
[6] abbreviates: SKM-1, SKM-1 antiproliferation assay.

For the molecule `Cn1ccn(-c2ccc(-c3cc(F)cc(-c4cc(N5CCC(N)CC5)c5cn[nH]c5c4)c3O)cc2Cl)c1=O` [Example 581], the IC50 in assay [1] (setting [3]) is 0.01 to 1 nM. The molecule also yielded a GI50 in assay [2] (setting [4]) of 30 to 300 nM.
In the same order, the values of `Cn1ccn(-c2ccc(-c3cc(F)cc(-c4cncc(N5CC6CCC(C5)N6)c4)c3O)cc2Cl)c1=O` [Example 512, 1-(3′-(5-(3,8-diazabicyclo[3.2.1]octan-3-yl)pyridin-3-yl)-3-chloro-5′-fluoro-2′-hydroxy-[1,1′-biphenyl]-4-yl)-3-methyl-1H-imidazol-2(3H)-one] are 1 to 10 nM and 0.3 to 30 nM.
On the same counts, the results for `Cn1ccn(-c2ccc(-c3cc(F)cc(-c4ccnc(N5CCC(O)(CO)C5)c4)c3O)cc2Cl)c1=O` (centres unmarked) [Example 731, 1-(3-chloro-5′-fluoro-2′-hydroxy-3′-(2-(3-hydroxy-3-(hydroxymethyl)pyrrolidin-1-yl)pyridin-4-yl)-[1,1′-biphenyl]-4-yl)-3-methyl-1H-imidazol-2(3H)-one] are 0.01 to 1 nM and 0.3 to 30 nM.
In the same order, the values of `Cn1cc(-c2cc(F)cc(-c3ccc(-n4ccn(C)c4=O)c(Cl)c3)c2O)cc(N2CCN(C(C)(C)C)CC2)c1=O` [Example 668, 3-(4-(tert-butyl)piperazin-1-yl)-5-(3′-chloro-5-fluoro-2-hydroxy-4′-(3-methyl-2-oxo-2,3-dihydro-1H-imidazol-1-yl)-[1,1′-biphenyl]-3-yl)-1-methylpyridin-2(1H)-one] are 0.01 to 1 nM and 0.3 to 30 nM.
`Cc1cc(-c2ccc(-n3ccn(C)c3=O)c(Cl)c2)c(O)c(-c2cc(F)c(F)c(N3CCN(C(C)(C)C)CC3)c2)n1` [Example 1026, 1-(4-(2-(3-(4-(tert-butyl)piperazin-1-yl)-4,5-difluorophenyl)-3-hydroxy-6-methylpyridin-4-yl)-2-chlorophenyl)-3-methyl-1H-imidazol-2(3H)-one]: the IC50 in assay [1] (setting [5]) lay within 0.01 to 1 nM. The GI50 in assay [2] (setting [6]) lay within 0.3 to 30 nM.
`Cc1cc(-c2cncc(N3CC[C@H](N)C3)c2)c(O)c(-c2ccc(-n3ccn(C)c3=O)c(Cl)c2)c1` [Example 509, (S)-1-(3′-(5-(3-aminopyrrolidin-1-yl)pyridin-3-yl)-3-chloro-2′-hydroxy-5′-methyl-[1,1′-biphenyl]-4-yl)-3-methyl-1H-imidazol-2(3H)-one]: in assay [1] (setting [3]), the half-maximal inhibitory concentration (IC50) was in the range of 1 to 10 nM. The same molecule registered a GI50 in assay [2] (setting [4]) of 0.3 to 30 nM.
On to `Cc1cc(-c2ccc(-n3ccn(C)c3=O)c(Cl)c2)c(O)c(-c2cc(N3CCN(C(C)(C)C)CC3)n3ccnc3c2)n1` [Example 1002, 1-(4-(2-(5-(4-(tert-butyl)piperazin-1-yl)imidazo[1,2-a]pyridin-7-yl)-3-hydroxy-6-methylpyridin-4-yl)-2-chlorophenyl)-3-methyl-1H-imidazol-2(3H)-one], for which the IC50 in assay [1] (setting [5]) was in the range of 1 to 10 nM. In assay [2] (setting [6]), this molecule registered a GI50 of 0.3 to 30 nM.
On the same counts, the results for `COc1ncc(-c2nc(C)cc(-c3ccc(-n4ccn(C)c4=O)c(Cl)c3)c2O)cc1N1CC[C@]2(CCN2C(C)C)C1` [Example 1022, (R)-1-(2-chloro-4-(3-hydroxy-5′-(1-isopropyl-1,6-diazaspiro[3.4]octan-6-yl)-6'-methoxy-6-methyl-[2,3′-bipyridin]-4-yl)phenyl)-3-methyl-1,3-dihydro-2H-imidazol-2-one] are 0.01 to 1 nM and 0.3 to 30 nM.
Turning to `CN1CCN(c2ccc(-c3cc(F)cc(-c4cnc(CCO)c(N5CCNCC5)c4)c3O)cc2Cl)C1=O` [Example 428, 1-(3-chloro-5′-fluoro-2′-hydroxy-3′-(6-(2-hydroxyethyl)-5-(piperazin-1-yl)pyridin-3-yl)-[1,1′-biphenyl]-4-yl)-3-methylimidazolidin-2-one], the 50% inhibitory concentration (IC50) in assay [1] (setting [3]) lay in the range of 1 to 10 nM. This molecule displayed a 50% growth inhibitory concentration (GI50) in assay [2] (setting [4]) of 30 to 300 nM.
For `Cc1ncc(-c2cc(F)cc(-c3ccc(-n4ccn(C)c4=O)c(Cl)c3)c2O)cc1N1CC[C@]2(CCCN2C(C)C)C1` [Example 956, (R)-1-(3-chloro-5′-fluoro-2′-hydroxy-3′-(5-(1-isopropyl-1,7-diazaspiro[4.4]nonan-7-yl)-6-methylpyridin-3-yl)-[1,1′-biphenyl]-4-yl)-3-methyl-1,3-dihydro-2H-imidazol-2-one], the IC50 in assay [1] (setting [5]) lay in the range of 1 to 10 nM. The molecule further registered a GI50 in assay [2] (setting [6]) of 0.3 to 30 nM.
Regarding `Cn1ccn(-c2ccc(-c3cc(F)cc(-c4ccnc(N5CC6CNC6C5)c4)c3O)cc2Cl)c1=O` (centres unmarked) [Example 656, 1-(3′-(2-(3,6-diazabicyclo[3.2.0]heptan-3-yl)pyridin-4-yl)-3-chloro-5′-fluoro-2′-hydroxy-[1,1′-biphenyl]-4-yl)-3-methyl-1H-imidazol-2(3H)-one], the half-inhibitory concentration (IC50) in assay [1] (setting [3]) was 0.01 to 1 nM. The same molecule came in with a GI50 in assay [2] (setting [4]) of 0.3 to 30 nM.
`CC(C)N1CCCC12CCN(c1cc(-c3cc(F)cc(-c4ccc(-n5ccn(C)c5=O)c(Cl)c4)c3O)cnc1N)C2` (centres unmarked) [Example 968, 1-(3′-(6-amino-5-(1-isopropyl-1,7-diazaspiro[4.4]nonan-7-yl)pyridin-3-yl)-3-chloro-5′-fluoro-2′-hydroxy-[1,1′biphenyl]-4-yl)-3-methyl-1H-imidazol-2(3H)-one]: in assay [1] (setting [5]), the IC50 was 1 to 10 nM. The same molecule gave a GI50 in assay [2] (setting [6]) of 0.3 to 30 nM.
As to `Cn1ccn(-c2ccc(-c3cc(F)cc(-c4ccnc(N5CCN6CCCCC6C5)c4)c3O)cc2Cl)c1=O` (centres unmarked) [Example 624, 1-(3-chloro-5′-fluoro-3′-(2-(hexahydro-1H-pyrido[1,2-a]pyrazin-2(6H)-yl)pyridin-4-yl)-2′-hydroxy-[1,1′-biphenyl]-4-yl)-3-methyl-1H-imidazol-2(3H)-one], the IC50 in assay [1] (setting [3]) was in the range of 0.01 to 1 nM. The same molecule had a GI50 in assay [2] (setting [4]) of 30 to 300 nM.
`Cc1ncc(-c2cc(F)cc(-c3ccc(-n4ccn(C)c4=O)c(Cl)c3)c2O)cc1N1CCC2(CCCN2C(C)C)C1` (centres unmarked) [Example 911, 1-(3-chloro-5′-fluoro-2′-hydroxy-3′-(5-(1-isopropyl-1,7-diazaspiro[4.4]nonan-7-yl)-6-methylpyridin-3-yl)-[1,1′-biphenyl]-4-yl)-3-methyl-1H-imidazol-2(3H)-one]: the IC50 in assay [1] (setting [5]) lay within 0.01 to 1 nM. For the same molecule, the GI50 in assay [2] (setting [6]) lay within 0.3 to 30 nM.
In the same order, the values of `Cc1ncc(-c2cc(F)cc(-c3ccc(-n4ccn(C)c4=O)c(Cl)c3)c2O)cc1N1CC(C)(C)[C@](C)(O)C1` [Example 884] are 1 to 10 nM and 30 to 300 nM.
In the case of `CN1CCN(c2ccc(-c3cccc(-c4ccnc(N5CCC(N)CC5)c4)c3O)cc2Cl)C1=O` [Example 300, 1-(3′-(2-(4-aminopiperidin-1-yl)pyridin-4-yl)-3-chloro-2′-hydroxy-[1,1′-biphenyl]-4-yl)-3-methylimidazolidin-2-one], the IC50 in assay [1] (setting [3]) lay in the range of 1 to 10 nM. For the same molecule, in assay [2] (setting [4]), the GI50 was in the range of 30 to 300 nM.
On the same counts, the results for `CN1CCN(c2c(F)cc(-c3cc(F)cc(-c4ccnc(N5CCNCC5)c4)c3O)cc2Cl)C1=O` [Example 400, 1-(3-chloro-5,5′-difluoro-2′-hydroxy-3′-(2-(piperazin-1-yl)pyridin-4-yl)-[1,1′-biphenyl]-4-yl)-3-methylimidazolidin-2-one] are 10 to 100 nM and 300 to 3000 nM.
`COC(=O)Oc1c(-c2ccc(-n3ccn(C)c3=O)c(Cl)c2)cc(F)cc1-c1cnc(C)c(N2CCN(C(C)C)CC2)c1` [Example 877]: the IC50 in assay [1] (setting [5]) was > 100 nM. Also, the GI50 in assay [2] (setting [6]) is 0.3 to 30 nM.
Consider `CN1CCN(c2ccc(-c3cc(F)cc(-c4ccnc(N5CCC[C@H](N)C5)c4)c3O)cc2Cl)C1=O` [Example 360, (S)-1-(3′-(2-(3-aminopiperidin-1-yl)pyridin-4-yl)-3-chloro-5′-fluoro-2′-hydroxy-[1,1′-biphenyl]-4-yl)-3-methylimidazolidin-2-one], for which the IC50 in assay [1] (setting [3]) was in the range of 1 to 10 nM. In assay [2] (setting [4]), the GI50 lay in the range of 30 to 300 nM.
